Test results reported in ChEMBL document CHEMBL4507268 (2021).

Columns and labels:
[1] = target: T1, Protein kinase C iota type (Homo sapiens) (UniProt P41743); details: Compound concentration 1.0 uM
T1 sequence (whole entry): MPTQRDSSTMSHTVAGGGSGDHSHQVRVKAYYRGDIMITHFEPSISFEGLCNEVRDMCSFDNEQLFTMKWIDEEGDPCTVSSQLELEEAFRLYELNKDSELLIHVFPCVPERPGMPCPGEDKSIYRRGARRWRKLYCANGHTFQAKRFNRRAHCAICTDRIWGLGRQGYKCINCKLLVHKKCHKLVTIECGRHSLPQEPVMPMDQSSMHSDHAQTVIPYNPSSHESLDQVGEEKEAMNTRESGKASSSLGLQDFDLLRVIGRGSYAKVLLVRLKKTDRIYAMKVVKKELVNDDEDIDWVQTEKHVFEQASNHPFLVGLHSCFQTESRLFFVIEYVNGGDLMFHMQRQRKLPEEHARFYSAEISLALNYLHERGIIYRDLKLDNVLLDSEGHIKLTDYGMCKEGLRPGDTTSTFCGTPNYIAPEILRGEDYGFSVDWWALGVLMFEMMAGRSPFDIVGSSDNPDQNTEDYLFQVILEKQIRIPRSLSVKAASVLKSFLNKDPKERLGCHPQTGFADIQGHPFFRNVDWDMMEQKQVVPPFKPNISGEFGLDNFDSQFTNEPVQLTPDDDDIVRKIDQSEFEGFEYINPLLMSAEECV

[2] = target: cAMP-dependent protein kinase catalytic subunit beta (Homo sapiens) (UniProt P22694); details: Compound concentration 1.0 uM
[3] = target: T2, Serine/threonine-protein kinase 4 (Homo sapiens) (UniProt Q13043); details: Compound concentration 1.0 uM
T2 sequence (whole entry): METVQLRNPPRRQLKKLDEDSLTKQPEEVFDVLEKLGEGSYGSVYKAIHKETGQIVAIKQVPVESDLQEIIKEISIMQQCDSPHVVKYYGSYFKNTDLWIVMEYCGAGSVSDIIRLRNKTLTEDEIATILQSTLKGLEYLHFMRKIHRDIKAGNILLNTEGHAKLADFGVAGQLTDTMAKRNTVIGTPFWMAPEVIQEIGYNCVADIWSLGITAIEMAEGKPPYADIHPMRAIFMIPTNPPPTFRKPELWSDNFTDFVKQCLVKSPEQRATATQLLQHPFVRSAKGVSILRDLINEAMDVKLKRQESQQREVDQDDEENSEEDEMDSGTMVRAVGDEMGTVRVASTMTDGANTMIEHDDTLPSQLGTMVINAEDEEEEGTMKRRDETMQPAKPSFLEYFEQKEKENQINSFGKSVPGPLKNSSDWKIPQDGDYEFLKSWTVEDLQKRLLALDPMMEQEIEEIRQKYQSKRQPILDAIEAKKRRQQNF

[4] = target: PAS domain-containing serine/threonine-protein kinase (Homo sapiens) (UniProt Q96RG2); details: Compound concentration 1.0 uM
Chain of PAS domain-containing serine/threonine-protein kinase (Homo sapiens) (Q96RG2 whole entry, the tested form may be a part): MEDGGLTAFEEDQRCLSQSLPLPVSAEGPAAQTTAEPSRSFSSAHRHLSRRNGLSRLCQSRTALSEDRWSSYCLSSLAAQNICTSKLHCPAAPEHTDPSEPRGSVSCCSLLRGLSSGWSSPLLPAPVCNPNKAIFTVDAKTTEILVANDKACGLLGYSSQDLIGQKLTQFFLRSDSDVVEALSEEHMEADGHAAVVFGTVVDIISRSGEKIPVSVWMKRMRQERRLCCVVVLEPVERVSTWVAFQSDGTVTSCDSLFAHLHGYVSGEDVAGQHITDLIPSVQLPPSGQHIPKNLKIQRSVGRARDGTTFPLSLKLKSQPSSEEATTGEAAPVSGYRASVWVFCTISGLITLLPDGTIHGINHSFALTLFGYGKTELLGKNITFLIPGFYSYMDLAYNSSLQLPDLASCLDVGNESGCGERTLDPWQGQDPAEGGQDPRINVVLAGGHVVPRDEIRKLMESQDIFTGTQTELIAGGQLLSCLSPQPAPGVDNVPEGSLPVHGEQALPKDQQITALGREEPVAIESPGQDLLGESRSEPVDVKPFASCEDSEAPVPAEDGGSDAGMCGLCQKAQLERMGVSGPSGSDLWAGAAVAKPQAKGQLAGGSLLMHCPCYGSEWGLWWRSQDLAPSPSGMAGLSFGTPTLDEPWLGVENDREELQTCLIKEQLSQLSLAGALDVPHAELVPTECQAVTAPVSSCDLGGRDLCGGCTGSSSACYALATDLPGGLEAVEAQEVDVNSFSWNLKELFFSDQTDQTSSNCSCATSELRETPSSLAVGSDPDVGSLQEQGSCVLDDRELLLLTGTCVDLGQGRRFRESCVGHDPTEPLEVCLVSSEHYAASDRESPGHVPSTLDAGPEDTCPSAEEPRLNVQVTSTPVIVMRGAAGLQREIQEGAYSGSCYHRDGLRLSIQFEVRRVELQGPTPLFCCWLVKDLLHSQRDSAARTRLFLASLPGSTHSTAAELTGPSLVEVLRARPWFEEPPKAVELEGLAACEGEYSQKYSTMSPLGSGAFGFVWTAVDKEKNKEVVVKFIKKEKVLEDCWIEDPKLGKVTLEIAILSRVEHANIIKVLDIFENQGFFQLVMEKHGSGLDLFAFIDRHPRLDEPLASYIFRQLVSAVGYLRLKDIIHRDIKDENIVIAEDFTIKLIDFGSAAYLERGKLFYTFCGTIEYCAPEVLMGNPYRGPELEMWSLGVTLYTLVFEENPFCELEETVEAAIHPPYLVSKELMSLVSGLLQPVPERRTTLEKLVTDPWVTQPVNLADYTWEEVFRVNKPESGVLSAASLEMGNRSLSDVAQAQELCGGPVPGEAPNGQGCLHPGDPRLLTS

[5] = target: Sodium-dependent dopamine transporter (Homo sapiens) (UniProt Q01959); details: Compound concentration 10.0 uM
[6] = target: Serine/threonine-protein kinase PLK3 (Homo sapiens) (UniProt Q9H4B4); details: Compound concentration 1.0 uM
[7] = target: Casein kinase I isoform gamma-3 (Homo sapiens) (UniProt Q9Y6M4); details: Compound concentration 1.0 uM
Chain of Casein kinase I isoform gamma-3 (Homo sapiens) (Q9Y6M4 whole entry, looked up, canonical isoform): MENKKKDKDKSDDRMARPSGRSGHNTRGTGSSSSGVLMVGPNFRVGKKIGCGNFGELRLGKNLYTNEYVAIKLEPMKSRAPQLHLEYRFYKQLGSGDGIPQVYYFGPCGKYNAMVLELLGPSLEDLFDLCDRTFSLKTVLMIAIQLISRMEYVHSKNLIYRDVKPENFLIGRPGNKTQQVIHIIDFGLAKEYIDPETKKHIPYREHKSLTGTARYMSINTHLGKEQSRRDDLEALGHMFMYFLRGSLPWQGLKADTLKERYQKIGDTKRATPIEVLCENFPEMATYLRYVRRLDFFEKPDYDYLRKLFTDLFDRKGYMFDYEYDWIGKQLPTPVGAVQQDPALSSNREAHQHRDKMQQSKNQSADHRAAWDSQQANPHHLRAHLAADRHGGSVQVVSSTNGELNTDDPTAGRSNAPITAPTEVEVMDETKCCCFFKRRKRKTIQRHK

[8] = target: Serine/threonine-protein kinase PAK 3 (Homo sapiens) (UniProt O75914); details: Compound concentration 1.0 uM
[9] = target: cAMP-dependent protein kinase catalytic subunit alpha (Homo sapiens) (UniProt P17612); details: Compound concentration 1.0 uM
[10] = target: Protein kinase C beta type (Homo sapiens) (UniProt P05771); details: Compound concentration 1.0 uM
[11] = target: Cyclin-dependent kinase-like 1 (Homo sapiens) (UniProt Q00532); details: Compound concentration 1.0 uM
[12] = target: Angiopoietin-1 receptor (Homo sapiens) (UniProt Q02763); details: Compound concentration 1.0 uM
Chain of Angiopoietin-1 receptor (Homo sapiens) (Q02763 whole entry): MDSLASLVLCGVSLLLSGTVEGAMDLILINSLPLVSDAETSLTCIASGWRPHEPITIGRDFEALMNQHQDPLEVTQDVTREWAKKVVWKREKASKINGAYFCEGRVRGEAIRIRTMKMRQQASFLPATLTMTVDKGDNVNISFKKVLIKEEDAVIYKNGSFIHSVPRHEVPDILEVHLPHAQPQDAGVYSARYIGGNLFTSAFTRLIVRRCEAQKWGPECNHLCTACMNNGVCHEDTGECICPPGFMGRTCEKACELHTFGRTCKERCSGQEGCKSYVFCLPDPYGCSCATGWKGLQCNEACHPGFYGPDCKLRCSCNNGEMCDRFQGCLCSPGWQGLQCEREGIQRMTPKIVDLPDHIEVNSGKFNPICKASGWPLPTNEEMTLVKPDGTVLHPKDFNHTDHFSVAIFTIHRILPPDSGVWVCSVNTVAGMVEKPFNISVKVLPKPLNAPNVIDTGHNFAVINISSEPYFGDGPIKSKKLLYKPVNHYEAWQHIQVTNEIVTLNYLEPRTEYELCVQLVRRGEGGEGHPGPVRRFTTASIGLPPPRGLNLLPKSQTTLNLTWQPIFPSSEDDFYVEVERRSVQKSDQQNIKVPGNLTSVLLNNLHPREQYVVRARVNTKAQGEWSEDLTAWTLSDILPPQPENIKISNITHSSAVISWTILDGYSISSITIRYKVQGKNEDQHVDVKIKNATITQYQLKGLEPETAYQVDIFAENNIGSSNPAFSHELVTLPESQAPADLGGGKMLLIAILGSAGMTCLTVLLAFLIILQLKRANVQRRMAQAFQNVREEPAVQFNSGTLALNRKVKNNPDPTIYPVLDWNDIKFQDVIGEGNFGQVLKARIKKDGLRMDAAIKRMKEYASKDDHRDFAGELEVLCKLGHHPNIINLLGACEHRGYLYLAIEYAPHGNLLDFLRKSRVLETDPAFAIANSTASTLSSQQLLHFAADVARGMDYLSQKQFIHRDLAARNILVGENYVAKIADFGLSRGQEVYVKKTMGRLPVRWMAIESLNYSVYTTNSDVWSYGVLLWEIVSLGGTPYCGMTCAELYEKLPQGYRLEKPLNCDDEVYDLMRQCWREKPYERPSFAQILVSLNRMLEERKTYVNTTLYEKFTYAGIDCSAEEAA

[13] = target: Sodium-dependent serotonin transporter (Homo sapiens) (UniProt P31645); details: Compound concentration 10.0 uM
[14] = target: Ribosomal protein S6 kinase alpha-4 (Homo sapiens) (UniProt O75676); details: Compound concentration 1.0 uM
Chain of Ribosomal protein S6 kinase alpha-4 (Homo sapiens) (O75676 whole entry, looked up): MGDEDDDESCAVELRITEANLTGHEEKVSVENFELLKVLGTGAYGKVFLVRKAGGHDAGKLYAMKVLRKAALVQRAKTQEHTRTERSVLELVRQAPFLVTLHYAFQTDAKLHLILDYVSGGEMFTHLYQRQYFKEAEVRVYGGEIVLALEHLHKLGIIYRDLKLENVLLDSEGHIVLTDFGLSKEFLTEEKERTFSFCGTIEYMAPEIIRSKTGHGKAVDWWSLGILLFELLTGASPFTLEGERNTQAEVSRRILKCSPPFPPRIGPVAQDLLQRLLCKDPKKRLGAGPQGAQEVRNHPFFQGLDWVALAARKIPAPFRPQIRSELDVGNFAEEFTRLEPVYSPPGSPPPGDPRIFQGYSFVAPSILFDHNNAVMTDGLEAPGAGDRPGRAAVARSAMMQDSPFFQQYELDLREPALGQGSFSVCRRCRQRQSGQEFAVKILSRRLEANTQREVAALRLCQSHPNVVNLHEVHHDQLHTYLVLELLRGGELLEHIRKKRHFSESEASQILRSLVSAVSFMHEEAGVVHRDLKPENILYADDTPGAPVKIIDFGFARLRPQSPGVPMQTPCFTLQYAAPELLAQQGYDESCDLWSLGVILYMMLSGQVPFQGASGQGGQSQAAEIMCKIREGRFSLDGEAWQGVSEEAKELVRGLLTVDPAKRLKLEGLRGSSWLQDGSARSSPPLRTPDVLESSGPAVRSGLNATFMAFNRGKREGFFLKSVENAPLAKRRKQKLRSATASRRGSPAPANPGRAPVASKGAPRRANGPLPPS

[15] = target: Dual specificity protein kinase CLK1 (Homo sapiens) (UniProt P49759); details: Compound concentration 1.0 uM
[16] = target: Tyrosine-protein kinase ABL1 (Homo sapiens) (UniProt P00519); details: Compound concentration 1.0 uM
[17] = target: Macrophage-stimulating protein receptor (Homo sapiens) (UniProt Q04912); details: Compound concentration 1.0 uM
[18] = target: Tyrosine-protein kinase HCK (Homo sapiens) (UniProt P08631); details: Compound concentration 1.0 uM
[19] = target: Phosphatidylinositol 5-phosphate 4-kinase type-2 alpha (Homo sapiens) (UniProt P48426); details: Compound concentration 1.0 uM
[20] = target: T3, Aurora kinase A (Homo sapiens) (UniProt O14965); details: Compound concentration 1.0 uM
T3 sequence (whole entry): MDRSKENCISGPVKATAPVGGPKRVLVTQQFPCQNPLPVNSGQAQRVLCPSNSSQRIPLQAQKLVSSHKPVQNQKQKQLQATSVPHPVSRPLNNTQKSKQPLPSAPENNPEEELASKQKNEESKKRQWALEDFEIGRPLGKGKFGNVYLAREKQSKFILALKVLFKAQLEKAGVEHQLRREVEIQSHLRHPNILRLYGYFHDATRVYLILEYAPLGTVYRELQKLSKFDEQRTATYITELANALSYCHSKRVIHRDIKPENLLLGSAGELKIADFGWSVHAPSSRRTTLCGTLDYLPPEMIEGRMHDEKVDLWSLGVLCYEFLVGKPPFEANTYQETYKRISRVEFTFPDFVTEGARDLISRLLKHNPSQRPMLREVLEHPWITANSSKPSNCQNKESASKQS

[21] = target: Homeodomain-interacting protein kinase 2 (Homo sapiens) (UniProt Q9H2X6); details: Compound concentration 1.0 uM
Chain of Homeodomain-interacting protein kinase 2 (Homo sapiens) (Q9H2X6 whole entry, looked up): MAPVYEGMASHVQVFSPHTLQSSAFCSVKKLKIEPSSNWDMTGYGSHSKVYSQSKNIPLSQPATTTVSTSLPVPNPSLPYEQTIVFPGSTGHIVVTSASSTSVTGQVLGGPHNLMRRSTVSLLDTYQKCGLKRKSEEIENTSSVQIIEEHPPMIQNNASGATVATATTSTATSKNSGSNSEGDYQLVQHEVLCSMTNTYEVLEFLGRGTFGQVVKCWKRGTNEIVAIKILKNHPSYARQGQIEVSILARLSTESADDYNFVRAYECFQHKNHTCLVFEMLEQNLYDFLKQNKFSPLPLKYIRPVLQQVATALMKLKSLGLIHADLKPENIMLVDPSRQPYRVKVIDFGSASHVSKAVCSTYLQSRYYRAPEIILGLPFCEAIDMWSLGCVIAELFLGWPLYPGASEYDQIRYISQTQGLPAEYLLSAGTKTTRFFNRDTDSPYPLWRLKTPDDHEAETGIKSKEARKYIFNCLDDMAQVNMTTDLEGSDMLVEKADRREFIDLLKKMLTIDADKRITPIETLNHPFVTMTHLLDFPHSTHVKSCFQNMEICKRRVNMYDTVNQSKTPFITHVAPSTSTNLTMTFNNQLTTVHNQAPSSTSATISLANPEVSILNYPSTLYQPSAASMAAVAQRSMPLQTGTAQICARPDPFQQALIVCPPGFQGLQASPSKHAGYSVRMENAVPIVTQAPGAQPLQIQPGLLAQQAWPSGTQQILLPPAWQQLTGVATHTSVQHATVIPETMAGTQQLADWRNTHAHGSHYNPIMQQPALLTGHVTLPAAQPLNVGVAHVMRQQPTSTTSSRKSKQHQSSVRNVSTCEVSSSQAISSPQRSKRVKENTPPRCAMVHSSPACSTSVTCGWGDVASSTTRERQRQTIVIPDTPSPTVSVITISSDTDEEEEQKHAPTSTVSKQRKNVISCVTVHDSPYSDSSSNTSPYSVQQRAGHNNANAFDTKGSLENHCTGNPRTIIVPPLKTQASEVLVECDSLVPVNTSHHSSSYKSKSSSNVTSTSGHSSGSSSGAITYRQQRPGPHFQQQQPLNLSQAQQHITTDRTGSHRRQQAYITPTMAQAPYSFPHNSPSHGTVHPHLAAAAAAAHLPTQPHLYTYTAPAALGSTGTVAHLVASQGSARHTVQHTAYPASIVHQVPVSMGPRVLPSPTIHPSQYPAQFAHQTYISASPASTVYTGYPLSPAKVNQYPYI

[22] = target: High affinity nerve growth factor receptor (Homo sapiens) (UniProt P04629); details: Compound concentration 1.0 uM
[23] = target: ALK tyrosine kinase receptor (Homo sapiens) (UniProt Q9UM73); details: Compound concentration 1.0 uM

CN1CCN(c2cnc3c(C4CCN(C(=O)c5ccc(OC(F)(F)F)cc5N)CC4)ncnc3c2)CC1 [BAY-885]
inactive: % residual kinase activity [1] 102% | % residual kinase activity [2] 89% | % residual kinase activity [3] 117% | % residual kinase activity [4] 107% | inhibition [5] -4.2% | % residual kinase activity [6] 107% | % residual kinase activity [7] 96% | % residual kinase activity [8] 106% | % residual kinase activity [9] 99% | % residual kinase activity [10] 110% | % residual kinase activity [11] 115% | % residual kinase activity [12] 84% | inhibition [13] 32.4% | % residual kinase activity [14] 107% | % residual kinase activity [15] 105% | % residual kinase activity [16] 100% | % residual kinase activity [17] 100% | % residual kinase activity [18] 107% | % residual kinase activity [19] 95% | % residual kinase activity [20] 109% | % residual kinase activity [21] 107% | % residual kinase activity [22] 110% | % residual kinase activity [23] 121%
